# Biological target: kappa opioid receptor (OPRK1) (Homo sapiens (Human), UniProt P41145)
# Assay: OPRK1 antagonist assay (b-arrestin-2-TEV / b-lactamase reporter, EC80 U-50488 challenge)
# Format: cell-based
# Details: OPRK1 antagonist assay vs EC80 U-50488
# Chain of kappa opioid receptor (OPRK1) (P41145 whole entry): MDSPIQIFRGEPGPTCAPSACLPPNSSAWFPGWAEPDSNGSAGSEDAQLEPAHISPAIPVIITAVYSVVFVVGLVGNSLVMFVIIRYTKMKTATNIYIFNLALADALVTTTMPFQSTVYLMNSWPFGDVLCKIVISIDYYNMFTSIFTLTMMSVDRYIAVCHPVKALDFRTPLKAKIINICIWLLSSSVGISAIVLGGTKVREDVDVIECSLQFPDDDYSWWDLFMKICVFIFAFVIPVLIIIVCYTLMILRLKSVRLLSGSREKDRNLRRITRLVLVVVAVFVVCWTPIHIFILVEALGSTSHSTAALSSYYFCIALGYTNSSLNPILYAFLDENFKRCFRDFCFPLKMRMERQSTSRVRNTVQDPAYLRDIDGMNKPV
row,Structure (SMILES),IC50 [nM]
1,Cc1cc(C)c2nc(N3CCC(NCC(C)C)CC3)c(-c3nc(C)no3)cc2c1 [compound 364],18
2,COC1CN(c2nc3c(C)cc(C)cc3cc2-c2nc(C)no2)CCC1NCC(C)C (stereo not shown) [compound 365],8
3,CO[C@H]1CN(c2ncc(C)cc2-n2ccc(C)n2)CC[C@H]1NC1CCCCC1 [compound 366],19
4,Cc1ccc2nc(N3CCC(NC4CCCCCC4)CC3)c(-c3nc(C)no3)cc2c1 [compound 367],2
5,Cc1ccc2nc(N3CCC(NC4CCCCC4CO)CC3)c(-c3nc(C)no3)cc2c1 (stereo not shown) [compound 368],7
6,Cc1ccc2nc(N3CCC(NC4CCCC4)CC3)c(-c3nc(C)no3)cc2c1 [compound 369],2
7,Cc1ccc2nc(N3CCC(NC4CCC4)CC3)c(-c3nc(C)no3)cc2c1 [compound 370],37
8,Cc1ccc2nc(N3CCC(NC4CCC[C@@H]4O)CC3)c(-c3nc(C)no3)cc2c1 (stereo partly shown) [compound 372],15
9,CCc1cnc(N2CCC(NC3CCCCC3)C(OC)C2)c(-c2nc(C)no2)c1 (stereo not shown) [compound 379],525
10,COC1CN(c2ncc(C)cc2-c2cc(C)no2)CCC1NC1CCCCC1 (stereo not shown) [compound 380],128
11,Cc1cnc(N2CCC(NCC(C)C)CC2)c(-c2cc(C)no2)c1 [compound 381],860
12,CO[C@@H]1CN(c2ncc(C)cc2-n2ccc(C)n2)CC[C@@H]1NC1CCCCC1 [compound 383],1160
13,Cc1ccc(-c2nc(C)no2)c(N2CCC(NC3CCCCC3)C(CO)C2)n1 (stereo not shown) [compound 386],31
14,Cc1ccc(-c2nc(C)no2)c(N2CCC(NC3CCCCC3)CC2)n1 [compound 387],89
15,Cc1cnc(N2CCC(NC3CCCCC3)CC2)c(-c2nc(C)no2)c1 [compound 388],20
16,Cc1cnc(N2CCC(NC3CCOCC3)CC2)c(-c2nc(C)no2)c1 [compound 389],153
17,CCc1noc(-c2cc(C)cnc2N2CCC(NC3CCCCC3)C(OC)C2)n1 (stereo not shown) [compound 391],105
18,Cc1cnc(N2CCC(NCC(C)C)CC2)c(-c2nc(C)no2)c1 [compound 393],346
19,Cc1noc(-c2cc(C)c(C)nc2N2CCC(NCC(C)C)CC2)n1 [compound 394],161
20,CO[C@H]1CN(c2ncc(C)cc2-c2noc(C)n2)CC[C@H]1NC1CCCCC1 [compound 395],49
21,Cc1cnc(N2CCC(NC3CCOCC3)CC2)c(-c2nc(C3CC3)no2)c1 [compound 396],2260

row,Structure (SMILES),IC50 [nM]
1,Cc1cnc(N2CCC(NCC(C)C)CC2)c(-c2nc(C3CC3)no2)c1 [compound 397],1280
2,CO[C@H]1CN(c2ncc(C)cc2-c2nc(C3CC3)no2)CC[C@H]1NC1CCCCC1 [compound 398],18
3,CO[C@@H]1CN(c2ncc(C)cc2-c2noc(C)n2)CC[C@@H]1NC1CCCCC1 [compound 399],953
4,Cc1cc(C(=O)N(C)C)c(N2CCC(NC3CCCCC3)CC2)nn1 [compound 400],279
5,CCOC(=O)CCNC1CCN(c2nc3ccc(C)cc3cc2-c2nc(C)no2)CC1 [compound 407],341
6,Cc1ccc2nc(N3CCC(NCC(C)(C)O)CC3)c(-c3noc(C)n3)cc2c1 [compound 412],476
7,Cc1ccc2nc(N3CCC(NCC(C)C)CC3)c(-c3noc(C)n3)cc2c1 [compound 413],22
8,Cc1ccc2nc(N3CCC(NC4CCCC4)CC3)c(-c3noc(C)n3)cc2c1 [compound 414],9
9,Cc1ccc2nc(N3CCC(NC4CCCCCC4)CC3)c(-c3noc(C)n3)cc2c1 [compound 415],3
10,CCC(CC)NC1CCN(c2nc3ccc(C)cc3cc2-c2noc(C)n2)CC1 [compound 416],4
11,Cc1ccc2nc(N3CCC(NC4(C)CCOCC4)CC3)c(-c3noc(C)n3)cc2c1 [compound 417],105
12,Cc1ccc2nc(N3CCC(NC4CCC[C@@H]4O)CC3)c(-c3noc(C)n3)cc2c1 (stereo partly shown) [compound 418],50
13,Cc1ccc2nc(N3CCC(NC4CCCOC4)CC3)c(-c3noc(C)n3)cc2c1 (stereo not shown) [compound 419],2
14,Cc1cc(-c2noc(C)n2)c(N2CCC(NC3CCCCC3)CC2)nn1 [compound 420],3
15,Cc1ccc2nc(N3CCC(NC[C@@H](C)O)CC3)c(-c3noc(C)n3)cc2c1 [compound 423],191
16,Cc1ccc2nc(N3CCC(NC[C@H](C)O)CC3)c(-c3noc(C)n3)cc2c1 [compound 424],422
17,CO[C@H]1CN(c2nc(C)ccc2-c2ccc(C)nn2)CC[C@H]1NC1CCCCC1 [compound 426],1970
18,CO[C@@H]1CN(c2nc(C)ccc2-c2ccc(C)nn2)CC[C@@H]1NC1CCCCC1 [compound 427],4600
19,Cc1noc(-c2ccc(CO)nc2N2CCC(NC3CCCCC3)CC2)n1 [compound 428],101
20,CO[C@H]1CN(c2nc(C)ccc2-c2noc(C)n2)CC[C@H]1NC1CCCCC1 [compound 429],214
21,CO[C@@H]1CN(c2nc(C)ccc2-c2noc(C)n2)CC[C@@H]1NC1CCCCC1 [compound 430],1000

row,Structure (SMILES),IC50 [nM]
1,Cc1cc(-c2noc(C)n2)c(N2CCC(NCC(C)C)CC2)nn1 [compound 431],22
2,Cc1ccc2nc(N3CCC(NC4CCOC4)CC3)c(-c3noc(C)n3)cc2c1 (stereo not shown) [compound 432],22
3,Cc1ccc2nc(N3CCC(NC4CCCCC4)CC3)c(-c3ccc(C)nn3)cc2c1 [compound 438],75
4,CO[C@H]1CN(c2nc3ccc(C)cc3cc2-c2ccc(C)nn2)CC[C@H]1NC1CCCCC1 [compound 439],231
5,Cc1ccc2nc(N3CCC(NC4CCOCC4)CC3)c(-c3ccc(C)nn3)cc2c1 [compound 441],392
6,Cc1ccc2nc(N3CCC(NCC(C)C)CC3)c(-c3ccc(C)nn3)cc2c1 [compound 442],324
7,Cc1ccc2nc(N3CCC(NC4CCCC[C@@H]4O)CC3)c(-c3ccc(C)nn3)cc2c1 (stereo partly shown) [compound 443],33
8,Cc1ccc2nc(N3CCC(NC4CCC[C@@H]4O)CC3)c(-c3ccc(C)nn3)cc2c1 (stereo partly shown) [compound 444],634
9,Cc1ccc2nc(N3CCC(NC4CCCC4)CC3)c(-c3ccc(C)nn3)cc2c1 [compound 445],55
10,Cc1nc(-c2c(N3CCC(NC4CCCC[C@@H]4O)CC3)nc3ccccc3c2C)no1 (stereo partly shown) [compound 446],72
11,Cc1nc(-c2c(N3CCC(NC4CCOCC4)CC3)nc3ccccc3c2C)no1 [compound 447],1150
12,Cc1nc(-c2c(N3CCC(NCC(C)C)CC3)nc3ccccc3c2C)no1 [compound 448],226
13,CCC(CC)NC1CCN(c2nc3ccccc3c(C)c2-c2noc(C)n2)CC1 [compound 449],129
14,Cc1ccc2nc(N3CCC(NC4CCCCC4O)CC3)c(-c3ccc(C)nn3)cc2c1 (stereo not shown) [compound 451],94
15,Cc1cc(-c2noc(C)n2)c(N2CCC(NC3CCCC[C@@H]3O)CC2)nn1 (stereo partly shown) [compound 452],47
16,CCc1ccc(-c2cc3cc(C)ccc3nc2N2CCC(NC3CCCC[C@@H]3O)CC2)nn1 (stereo partly shown) [compound 454],783
17,CCc1ccc(-c2cc3cc(C)ccc3nc2N2CCC(NC3CCCCC3)CC2)nn1 [compound 455],1640
18,CO[C@H]1CN(c2nnc(C)cc2-c2nc(C3CC3)no2)CC[C@H]1NC1CCCCC1 [compound 456],6
19,Cc1cc(-c2nc(C3CC3)no2)c(N2CCC(NC3CCCCC3)CC2)nn1 [compound 457],24

# From patent publication US9682966B2, “Kappa opioid ligands” (The Scripps Research Institute, priority 2012, dated 2017)
